These are literature values, as cited in patent US20180153800A1, “PERSONAL LUBRICANT PROVIDING SEQUENTIAL MULTISENSORIAL PERCEPTIONS AND ARTICLES INCORPORATING SUCH LUBRICANT” (Church & Dwight Co., Inc., priority 2016, published 2018).

The test system of this series is human tissue.

In the case of `CC1CCC(C(C)C)C(C(=O)Nc2ccc(CC#N)cc2)C1` (stereo not drawn) [N-(4-cyanomethylphenyl) p-menthanecarboxamide], the “cooling sensation relative to menthol” value (reference menthol) is given as 10 times.

As for `CC1CCC(C(C)C)C(OC(=O)CCC(=O)N(C)C)C1` (stereo not drawn) [2-isopropyl-5-methylcyclohexyl 4-(dimethylamino)-4-oxobutanoate], the “time of onset of cooling sensation” value (after tissue contact) is “about 25 seconds”. Moreover, under “cooling sensation”, the sensation duration result was “about 11.25 minutes”.
